Data reported in patent US9018383B2, “Acylamino-substituted cyclic carboxylic acid derivatives and their use as pharmaceuticals” (Sanofi, priority 2009, dated 2015).
pIC50: −log10 of the molar value.

Tested on: unilateral ureteral obstruction
Experiment: not given
Conditions: model of unilateral ureteral obstruction; cited from earlier work
For `Cc1noc(-c2ccc(CSCCC(=O)O)cc2)c1NC(=O)OC(C)c1ccccc1Cl` (centres unmarked) [Ki16425], the renal injury is listed as “attenuated”.

Tested on: mesangial cells
Experiment: not given
Conditions: cited from earlier work
For “dioctanoylglycerol pyrophosphate [DGPP(8:0)]”, the “LPA-induced proliferative response of mesangial cells” value is listed as “inhibited”.

Tested on: bone metastasis
Experiment: not given
Conditions: in vivo; cited from earlier work
In the case of `Cc1noc(-c2ccc(CSCCC(=O)O)cc2)c1NC(=O)OC(C)c1ccccc1Cl` (centres unmarked) [Ki16425], the “progression of bone metastasis” value is given as “reduced”.

Tested on: vascular smooth muscle cells and endothelial cells
Experiment: not given
Conditions: cited from earlier work
For “dioctanoylglycerol pyrophosphate [DGPP(8:0)]”, the LPA-induced oxidative stress is listed as “attenuated”.

Tested on: platelet activation
Experiment: not given
Conditions: cited from earlier work
In the case of “dioctanoylglycerol pyrophosphate [DGPP(8:0)]”, the “effects of LPA, moxLDL or lipid core extracts from human atherosclerotic plaques on platelet activation” value is given as “abrogated”.

Molecular target: human Edg-2 receptor (Homo sapiens, UniProt Q92633)
Sequence (Q92633 whole entry): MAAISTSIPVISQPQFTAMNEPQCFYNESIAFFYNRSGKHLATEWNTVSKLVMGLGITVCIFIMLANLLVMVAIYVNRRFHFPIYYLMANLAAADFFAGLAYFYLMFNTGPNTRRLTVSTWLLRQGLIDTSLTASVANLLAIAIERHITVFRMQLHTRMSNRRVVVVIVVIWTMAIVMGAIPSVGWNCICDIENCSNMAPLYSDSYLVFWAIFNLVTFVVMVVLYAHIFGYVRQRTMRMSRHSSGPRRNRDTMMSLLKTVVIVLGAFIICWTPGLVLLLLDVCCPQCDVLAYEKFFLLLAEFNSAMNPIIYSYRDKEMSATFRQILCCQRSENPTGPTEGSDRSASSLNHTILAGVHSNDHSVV
Experiment: Determination of Edg-2 receptor inhibition by FLIPR measurements (LPA-mediated calcium liberation)
Assay type: cell-based
Conditions: CHO cells overexpressing human Edg-2 receptor, LPA 100 nM, fluo-4 calcium fluorescence; read-out: Inhibitory concentrations IC50 for inhibition of the Edg-2 receptor
In short: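 CHO cells stably overexpressing human Edg-2, loaded with fluo-4 AM, were pre-incubated ~5 min with compound (≤0.3% DMSO), then stimulated with 100 nM LPA 18:1 in HBSS/HEPES/probenecid, pH 7.5. Peak calcium fluorescence over ~3 min, baseline-corrected, versus DMSO gave % inhibition; IC50 from triplicates.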
In the case of `CCc1ncc(C(=O)N[C@]2(C(=O)O)CC[C@H](CC)CC2)cc1OCCc1cccc(Cl)c1` [Example 437, cis-1-({5-[2-(3-Chloro-phenyl)-ethoxy]-6-ethyl-pyridine-3-carbonyl}-amino)-4-ethyl-cyclohexanecarboxylic acid], the pIC50 was greater than 7.00.
Compound `CCc1ncc(C(=O)N[C@]2(C(=O)O)CC[C@@H](CC)CC2)cc1OCCc1cccc(Cl)c1` [Example 438, trans-1-({5-[2-(3-Chloro-phenyl)-ethoxy]-6-ethyl-pyridine-3-carbonyl}-amino)-4-ethyl-cyclohexanecarboxylic acid] has a pIC50 greater than 7.00.
With `CC[C@H]1CC[C@@](NC(=O)c2cc(OCCc3cccc(Cl)c3)c(C(C)=O)s2)(C(=O)O)CC1` [Example 439, trans-1-({5-Acetyl-4-[2-(3-chloro-phenyl)-ethoxy]-thiophene-2-carbonyl}-amino)-4-ethyl-cyclohexanecarboxylic acid] the pIC50 was 6.00 to 7.00.
Work on `CCc1sc(C(=O)N[C@]2(C(=O)O)CC[C@@H](CC)CC2)cc1OCCc1cccc(Cl)c1` [Example 440, trans-1-({4-[2-(3-Chloro-phenyl)-ethoxy]-5-ethyl-thiophene-2-carbonyl}-amino)-4-ethyl-cyclohexanecarboxylic acid] yielded a pIC50 of 6.00 to 7.00.
With `CC[C@H]1CC[C@](C(=O)O)(N(C)C(=O)c2ccc(OC)c(OCCc3cccc(C)c3)c2)CC1` [Example 441, trans-4-Ethyl-1-{[4-methoxy-3-(2-m-tolyl-ethoxy)-benzoyl]-methyl-amino}-cyclohexanecarboxylic acid] the pIC50 was 4.52 to 6.00.
`Cc1cccc(CCOc2ccc(C(=O)N[C@]3(C(=O)O)CC[C@@H](C)CC3)cc2C(O)C(F)(F)F)c1` (stereo partly drawn) [Example 442, (R,S)-trans-4-Methyl-1-[4-(2-m-tolyl-ethoxy)-3-(2,2,2-trifluoro-1-hydroxy-ethyl)-benzoylamino]-cyclohexanecarboxylic acid] gave a pIC50 greater than 7.00.
Compound `COc1ccc(-c2cc(C(=O)N[C@]3(C(=O)O)CC[C@@H](C)CC3)ccc2OC2CC(F)(F)C2)cc1Cl` [Example 443, Trans-1-{[3′-Chloro-6-(3,3-difluoro-cyclobutoxy)-4′-methoxy-biphenyl-3-carbonyl]-amino}-4-methyl-cyclohexanecarboxylic acid] has a pIC50 of 6.00 to 7.00.
Compound `COc1cc(F)c(-c2cc(C(=O)N[C@]3(C(=O)O)CC[C@@H](C)CC3)ccc2C(F)(F)F)c(F)c1` [Example 444, 1-[(2′,6′-Difluoro-4′-methoxy-6-trifluoromethyl-biphenyl-3-carbonyl)-amino]-4-methyl-cyclohexanecarboxylic acid] has a pIC50 of 6.00 to 7.00.
For `COc1ccc(C(=O)N[C@]2(C(=O)O)CC[C@@H](C)CC2)cc1-c1c(F)cc(OC)c(Cl)c1F` [Example 445, 1-[(3′-Chloro-2′,6′-difluoro-6,4′-dimethoxy-biphenyl-3-carbonyl)-amino]-4-methyl-cyclohexanecarboxylic acid], the pIC50 was greater than 7.00.
In the case of `COc1ccc(-c2cc(C(=O)N[C@]3(C(=O)O)CC[C@@H](C)CC3)cc(F)c2OC)cc1Cl` [Example 446, Trans-1-[(3′-Chloro-5-fluoro-6,4′-dimethoxy-biphenyl-3-carbonyl)-amino]-4-methyl-cyclohexanecarboxylic acid], the pIC50 was greater than 7.00.
Compound `CC[C@H]1CC[C@](NC(=O)c2cc(F)c(OC)c(-c3ccc(OC)c(Cl)c3)c2)(C(=O)O)CC1` [Example 447, Cis-1-[(3′-chloro-5-fluoro-6,4′-dimethoxy-biphenyl-3-carbonyl)-amino]-4-ethyl-cyclohexanecarboxylic acid] has a pIC50 greater than 7.00.
For `COc1ccc(-c2cc(C(=O)N[C@]3(C(=O)O)CC[C@H](C(F)(F)F)CC3)cc(F)c2OC)cc1Cl` [Example 448, Cis-1-[(3′-Chloro-5-fluoro-6,4′-dimethoxy-biphenyl-3-carbonyl)-amino]-4-trifluoromethyl-cyclohexanecarboxylic acid], the pIC50 was greater than 7.00.
In the case of `COc1ncc(-c2cc(C(=O)N[C@]3(C(=O)O)CC[C@@H](C)CC3)cc(F)c2OC)cc1Cl` [Example 449, 1-[3-(5-Chloro-6-methoxy-pyridin-3-yl)-5-fluoro-4-methoxy-benzoylamino]-4-methyl-cyclohexanecarboxylic acid], the pIC50 was 6.00 to 7.00.
Compound `CC[C@H]1CC[C@](NC(=O)c2cc(F)c(OC)c(-c3cnc(OC)c(Cl)c3)c2)(C(=O)O)CC1` [Example 450, 1-[3-(5-Chloro-6-methoxy-pyridin-3-yl)-5-fluoro-4-methoxy-benzoylamino]-4-ethyl-cyclohexanecarboxylic acid] has a pIC50 greater than 7.00.
In the case of `COc1ccc(-c2cncc(C(=O)N[C@]3(C(=O)O)CC[C@H](C(F)(F)F)CC3)c2)cc1Cl` [Example 451, 1-{[5-(3-Chloro-4-methoxy-phenyl)-pyridine-3-carbonyl]-amino}-4-trifluoromethyl-cyclohexanecarboxylic acid], the pIC50 was greater than 7.00.
In the case of `C[C@H]1CC[C@@](NC(=O)c2ccc(C(F)(F)F)c(-n3ccc4ccccc43)c2)(C(=O)O)CC1` [Example 452, 1-(3-Indol-1-yl-4-trifluoromethyl-benzoylamino)-4-methyl-cyclohexanecarboxylic acid], the pIC50 was 6.00 to 7.00.
`CC[C@H]1CC[C@](NC(=O)c2cncc(-c3ccc(OC)c(Cl)c3)c2)(C(=O)O)CC1` [Example 453, 1-{[5-(3-Chloro-4-methoxy-phenyl)-pyridine-3-carbonyl]-amino}-4-ethyl-cyclohexanecarboxylic acid] showed a pIC50 greater than 7.00.
With `Cc1cccc(CCOc2cc(C(=O)N[C@]3(C(=O)O)CC[C@H](C(F)(F)F)CC3)cc3c2OC(F)(F)O3)c1` [Example 454, Cis-1-{[2,2-Difluoro-7-(2-m-tolyl-ethoxy)-benzo[1,3]dioxole-5-carbonyl]-amino}-4-trifluoromethyl-cyclohexanecarboxylic acid] the pIC50 was greater than 7.00.
For `Cc1cccc(CCOc2cc(C(=O)NC3(C(=O)O)CCCCCC3)cc3c2OC(F)(F)O3)c1` [Example 455, 1-{[2,2-Difluoro-7-(2-m-tolyl-ethoxy)-benzo[1,3]dioxole-5-carbonyl]-amino}-cycloheptanecarboxylic acid], the pIC50 was greater than 7.00.
In the case of `CC[C@H]1CC[C@](NC(=O)c2cc(OCCc3cccc(C)c3)c3c(c2)OC(F)(F)O3)(C(=O)O)CC1` [Example 456, Cis-1-{[2,2-Difluoro-7-(2-m-tolyl-ethoxy)-benzo[1,3]dioxole-5-carbonyl]-amino}-4-ethyl-cyclohexanecarboxylic acid], the pIC50 was greater than 7.00.
For `COc1ccc(C(=O)NC2(C(=O)O)CCCCCC2)cc1-c1cccc(C2COC2)c1` [Example 457, 1-[(6-Methoxy-3′-oxetan-3-yl-biphenyl-3-carbonyl)-amino]-cycloheptanecarboxylic acid], the pIC50 was 6.00 to 7.00.
Compound `CC[C@H]1CC[C@](NC(=O)c2ccc(OC)c(-c3cccc(C4COC4)c3)c2)(C(=O)O)CC1` [Example 458, Cis-4-Ethyl-1-[(6-methoxy-3′-oxetan-3-yl-biphenyl-3-carbonyl)-amino]-cyclohexanecarboxylic acid] has a pIC50 greater than 7.00.
`COc1ccc(C(=O)N[C@]2(C(=O)O)CC[C@H](C(F)(F)F)CC2)cc1-c1cccc(C2COC2)c1` [Example 459, 1-[(6-Methoxy-3′-oxetan-3-yl-biphenyl-3-carbonyl)-amino]-4-trifluoromethyl-cyclohexanecarboxylic acid] showed a pIC50 greater than 7.00.
Work on `COc1ccc(C(=O)N[C@]2(C(=O)O)CC[C@H](C(F)(F)F)CC2)cc1OCCc1cccc(C2COC2)c1` [Example 460, 1-{4-Methoxy-3-[2-(3-oxetan-3-yl-phenyl)-ethoxy]-benzoylamino}-4-trifluoromethyl-cyclohexanecarboxylic acid] yielded a pIC50 of 6.00 to 7.00.
With `CC[C@H]1CC[C@](NC(=O)c2ccc(CCS(C)(=O)=O)c(OCCc3cccc(C)c3)c2)(C(=O)O)CC1` [Example 462, Cis-4-Ethyl-1-[4-(2-methanesulfonyl-ethyl)-3-(2-m-tolyl-ethoxy)-benzoylamino]-cyclohexanecarboxylic acid] the pIC50 was 6.00 to 7.00.
In the case of `CC[C@H]1CC[C@](NC(=O)c2cc3c(c(-c4ccc(OC)c(Cl)c4)c2)OC(F)(F)O3)(C(=O)O)CC1` [Example 463, Cis-1-{[7-(3-Chloro-4-methoxy-phenyl)-2,2-difluoro-benzo[1,3]dioxole-5-carbonyl]-amino}-4-ethyl-cyclohexanecarboxylic acid], the pIC50 was greater than 7.00.
“cis-1-{[5-(3-Chloro-4-methoxy-phenyl)-6-methoxy-pyridine-3-carbonyl]-amino}-4-ethyl-cyclohexanecarboxylic acid [Example 305]” gave a pIC50 greater than 7.00.
